Test results published in patent US20100324017A1, “ACYLGUANIDINE DERIVATIVE” (priority 2007, published 2010).

What was measured:
human 5-HT5A receptor = target: T1, human 5-HT5A receptor (Homo sapiens, UniProt P47898); assay: Test of human 5-HT5A receptor binding inhibition ([3H]5-CT, HEK293 cell membrane); details: [3H]5-CT binding, membrane of HEK293 cell expressing human 5-HT5A receptor
T1 construct: expressed in transfected cells; membrane preparation
Procedure: An ORF of a human 5-HT5A receptor (Genbank AF498985) was cloned from a human hippocampal cDNA library, and then inserted into a pCR2.1 vector (Invitrogen), and Escherichia coli having the plasmid was mass cultured. Next, the human 5-HT5A receptor full-length cDNA sequence was analyzed, recombined into a pCDNA3.1 vector (Invitrogen) as an expression vector, and mass cultured. A human embryonic kidney-induced cell HEK293 cell (ATCC) was seeded, and the resulting expression plasmid (1 μg) above was added thereto together with LIPOFECTAMINE 2000 (Invitrogen; 2 μl), a gene was introduced into the HEK293 cell, and then Geneticin (G418 sulfate 500 μg/ml; Kanto Chemical Co., Inc.) was used as a drug-resistant marker to screen the expressing cell. Thus prepared gene-expressing recombinant cell was cultured in a D-MEM, 10% FCS, 1% Pc./Sm., 500 μg/ml G418 culture medium for 3 days. This experimental operation was conducted in accordance with a gene operation experiment manual of a known method (Sambrook, J. et al, Molecular Cloning-A Laboratory Manual“, Cold Spring Harabor Laboratory, NY, 1989), etc., an instruction appended in a reagent or the like.
(1) Preparation of a Membrane from an HEK293 Cell Forcibly Expressing a Human 5-HT5A Receptor
An HEK293 cell forcibly expressing a human 5-HT5A receptor was cultured in an F500 plate, and scraped for collection using a scraper. After centrifugation, the precipitates were collected and an incubation buffer (50 mM Tris (HCl) PH 7.4, 10 mM Mg504, 0.5 mM EDTA) was added thereto. After homogenization, it was further centrifuged, an incubation buffer was added to the precipitate, and the mixture was well suspended. These operations were repeatedly conducted, the protein concentration was then measured, and the preparation of a membrane was completed.
(2) Experiment on Human 5-HT5A Receptor Binding Inhibition
The compound to be tested (0.3 to 300 nM) and a 100 μM 5-CT solution in DMSO were added to a 96-well plate at 2 μl/well. The number of the wells to be measured under the same condition in one experiment was set at 2, and an average value thereof was used. It was suspended in an incubation buffer, and a HEK293 cell membrane forcibly expressing a human 5-HT5A receptor that had been prepared at 200 μg/ml was added thereto at 100 μl/well. The mixture was incubated at room temperature for 15 minutes, and a [^3H]5-CT solution (2 nM [^3H]5-CT, an incubation buffer) was then added thereto at 100 μl/well.
Separate from this, 100 μl of the solution was dispersed to a liquid scintillation vial, 2 ml of Aquasol II (registered trademark) was added thereto, followed by stirring, and the radioactivity was then measured with a liquid scintillation counter. The solution was incubated at 37° C. for 60 minutes. The reaction liquid was sucked to a 96-well GF/C filter plate that had been preliminarily treated with 0.2% polyethyleneimine, and washed six times with an ice-cooled 50 mM Tris (pH 7.5) buffer. The GF/C filter plate was dried.
MicroscintTMPS (registered trademark) was added thereto at 40 μl/well. The radioactivity remaining on the GF/C filter plate was measured in a top counter.
For the inhibitory activity for the binding of the [^3H]5-CT by the compound to be tested in each experiment, IC50 value was calculated by taking the radioactivity when only DMSO was added as 0% inhibition, and the radioactivity when 1 μM 5-CT was added as 100% inhibition. Apart from this, a Ki value was calculated from the Kd value of the [^3H]5-CT that had been determined by Scatchard analysis.
Ki=IC50 (1+Concentration of the ligands added/Kd (4.95 nM))

MAP-induced overactivity = assay: MAP (methane phetamine)-induced overactivity in mice, kinetic momentum by infrared sensor; type: in vivo; details: mouse, oral, dose 0.01 mg/kg; MAP 1 mg/kg i.p.; total 60 minutes, P<0.05
Procedure: (§1) Evaluation of Various Drugs Relative to a Drug for Increasing the Kinetic Momentum of Mice (Methane Phetamine, MK-801) (Method for Measuring a Kinetic Momentum by Discharge of an Infrared Ray)
(§2) The effect of improving the positive symptoms and the negative symptoms of schizophrenia by the compound (I) was evaluated by measuring the kinetic momentum that had been […] with administration of the compound in a model causing the symptoms by methane phetamine (which is hereinafter simply referred to as MAP) and MK-801.
(§3) Species: Male ICR mouse/number of animals (number of animals per group): 8 to 12 animals per group
(§4) The animal was left in a laboratory for 1 hour or longer to be acclimated to the environment, and the animal was taken from the feeding cage, orally administered with a compound to be tested, and then returned to the feeding cage. After 30 minutes, it was put into a cage for measurement, and the kinetic momentum of just the compound to be tested was measured. Further, after 30 minutes, the animal was taken out, and intraperitoneally administered with a drug for increasing kinetic momentum (MAP; 1 mg/kg or MK-801; 0.3 mg/kg, all dissolved in physiological saline), and its kinetic momentum was measured for a certain time (60 minutes) using a device for measuring the kinetic momentum by means of an infrared ray sensor (CompACT AMS, Muromachi Kikai Co., Ltd.). Also, the test was carried out under non-fasting.
(§5) The 60 minutes of measurements was classified into three groups: a first half 30 minutes, a second half 30 minutes, and a total 60 minutes. For a normal mouse (a mouse administered with physiological saline) and a mouse administered with the drug for increasing kinetic momentum, a Student's T test was used for evaluation in each interval. For the group administered with the compound to be tested, a solvent (vehicle) group and a Dunnett's T test were carried out and evaluated. For the evaluation, in case where there was a significant (P<0.05) difference for the total 60 minutes, it was considered to be effective.

[1] = test system: MK-801-induced overactivity; assay: MK-801-induced overactivity in mice, kinetic momentum by infrared sensor; type: in vivo; details: mouse, oral, MK-801 0.3 mg/kg i.p.
Procedure: as §1, §2, §3, §4, §5

[2] = test system: scopolamine-induced spontaneous alternation behavior disorder; assay: Scopolamine-induced spontaneous alternation behavior disorder in mice (Y-maze); type: in vivo; details: mouse, scopolamine 0.5 mg/kg i.p.
Procedure: An Improvement Effect for Scopolamine-Induced or MK-801-Induced Spontaneous Alternation Behavior in Mice
An improvement effect of the compound (I) for cognitive impairment was evaluated by the above-described well-known test method as a model of a short-term learning disorder.
Species: Male ddY mice/number of animals (number of animals per group): 6 to 10 animals per group
A mouse was introduced into the laboratory 1 hour before starting the test. The mouse was placed at one end of an arm in a Y-maze having equal lengths of arms in three directions, and was able freely explored for 8 minutes with the number of the entries into the arms were counted. Furthermore, a spontaneous alternation behavior was defined as consecutive entries into each of the three arms, and an alternation rate was defined as the percentage of the number of time of this behavior relative to the total number of the entries, and calculated by the following equation.
Alternation rate (%)=(number of spontaneous alternation behaviors/total number of entries−2)×100.
The compound to be tested was orally administered 50 minutes before the initiation of the test, and 30 minutes later, 0.5 mg/kg of scopolamine or 0.15 mg/kg of MK-801 (in the normal group, physiological saline) was intraperitoneally administered. Furthermore, for the normal group (the group administered with physiological saline) and the control group (the group administered with 0.5 mg/kg scopolamine or 0.15 mg/kg MK-801), a solvent (vehicle) was orally administered when the compound to be tested was administered. For the normal group, physiological saline was intraperitoneally administered when scopolamine was administered.
The alternation rate (%) is expressed as an average value in each group (mean±SE). In regard to the alternation rate (%), in the case where a significant difference between the normal group and the control group (Student's T test) was found, it was considered that there was an establishment of learning disorder by the administration of scopolamine or MK-801. By carrying out the Dunnett evaluation for the group administered with the compound to be tested relative to the control group, the presence or absence of the learning disorder action of the compound to be tested was determined. In each evaluation, it was considered that there was a tendency at p<0.10, and there was a significant difference at p<0.05.

[3] = dose 0.01 mg/kg, total 60 minutes, P<0.05

T1 sequence (P47898 whole entry): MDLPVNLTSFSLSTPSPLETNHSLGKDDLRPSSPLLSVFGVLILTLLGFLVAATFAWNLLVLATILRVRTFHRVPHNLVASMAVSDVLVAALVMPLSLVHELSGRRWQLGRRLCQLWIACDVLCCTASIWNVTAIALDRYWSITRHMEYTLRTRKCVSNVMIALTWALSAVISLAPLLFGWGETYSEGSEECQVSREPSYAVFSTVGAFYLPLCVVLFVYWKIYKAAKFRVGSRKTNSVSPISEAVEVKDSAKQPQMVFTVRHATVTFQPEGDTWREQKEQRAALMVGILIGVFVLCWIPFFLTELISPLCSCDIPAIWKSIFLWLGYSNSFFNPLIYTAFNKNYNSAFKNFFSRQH

| SMILES | Ki (human 5-HT5A receptor) [µM] | inhibition of MK-801-induced overactivity [1, 3] | inhibition of MK-801-induced overactivity ([1]; dose 0.1 mg/kg) | other results |
| --- | --- | --- | --- | --- |
| NC(N)=NC(=O)c1ccc2c3c(F)cccc3n(C3CCOCC3)c2c1 [Example 86] | 0.00056 | significantly inhibited | – | inhibition of MAP-induced overactivity (MAP-induced overactivity): significantly inhibited; inhibition of scopolamine-induced spontaneous alternation behavior disorder ([2]; oral, dose 0.0001 mg/kg): significantly inhibited |
| NC(N)=NC(=O)c1ccc2c3ccccc3n(C3CCC(F)(F)CC3)c2c1 [Example 129] | ≤ 0.05 | – | significantly inhibited | – |
| Cl.Cl.NC(N)=NC(=O)c1ccc2c3ccccc3n(C3CCNCC3)c2c1 [Example 6, N-(diaminomethylene)-9-piperidin-4-yl-9H-carbazole-2-carboxamide dihydrochloride] | ≤ 0.05 | significantly inhibited | – | inhibition of MAP-induced overactivity (MAP-induced overactivity): significantly inhibited; inhibition of scopolamine-induced spontaneous alternation behavior disorder ([2]; oral, dose 0.003 mg/kg): significantly inhibited |
| NC(N)=NC(=O)c1ccc2c3ccccc3n(Cc3ccccc3)c2c1 [Example 37] | 0.0083 | significantly inhibited | – | – |
| NC(N)=NC(=O)c1ccc2c3ccccc3n(Cc3cccs3)c2c1 [Example 135] | ≤ 0.05 | significantly inhibited | – | inhibition of MAP-induced overactivity (MAP-induced overactivity): significantly inhibited; inhibition of scopolamine-induced spontaneous alternation behavior disorder ([2]; oral, dose 0.003 mg/kg): significantly inhibited |
| Cc1cc(C(=O)N=C(N)N)cc2c1c1c(F)cccc1n2C1CCOCC1 [Example 138] | ≤ 0.05 | significantly inhibited | – | – |
| N/C(=N\C(=O)c1ccc2c3ccccc3n(C3CCOCC3)c2c1)NCC1CC1 [Example 178] | ≤ 0.05 | significantly inhibited | – | – |
| CC(=O)n1c2ccccc2c2ccc(C(=O)N=C(N)N)cc21 [Example 26] | ≤ 0.05 | – | – | inhibition of scopolamine-induced spontaneous alternation behavior disorder ([2]; oral, dose 0.03 mg/kg): significantly inhibited |
| NC(N)=NC(=O)c1ccc2c3ccccc3n(C3CCCCC3)c2c1 [Example 24] | ≤ 0.05 | – | significantly inhibited | – |
| COc1cccc(CN/C(N)=N/C(=O)c2ccc3c4ccccc4n(C4CCOCC4)c3c2)c1 [Example 194] | ≤ 0.05 | – | – | inhibition of MK-801-induced overactivity ([1]; dose 0.03 mg/kg): significantly inhibited |
| COc1cc2c(cc1OC)C(=O)C(CC1CCN(Cc3ccccc3)CC1)C2 (stereo not drawn) [donepezil, reference compound] | – | – | – | inhibition of scopolamine-induced spontaneous alternation behavior disorder ([2]; dose 0.25 mg/kg): significantly inhibited |
| Cc1cc(C(=O)N=C(N)N)cc2c1c1ccccc1n2C1CCOCC1 [Example 106] | 0.00027 | – | – | inhibition of MAP-induced overactivity (MAP-induced overactivity): significantly inhibited; inhibition of MK-801-induced overactivity ([1]; dose 0.03 mg/kg): significantly inhibited; inhibition of scopolamine-induced spontaneous alternation behavior disorder ([2]; oral, dose 0.0001 mg/kg): significantly inhibited |
| CC(C)n1c2cc(C(=O)N=C(N)N)ccc2c2c(Cl)cccc21 [Example 59] | ≤ 0.05 | – | – | inhibition of scopolamine-induced spontaneous alternation behavior disorder ([2]; oral, dose 0.03 mg/kg): significantly inhibited |
| NC(N)=NC(=O)c1ccc2c3ccccc3n(C3CCC3)c2c1 [Example 22] | ≤ 0.05 | – | significantly inhibited | – |
| Cc1cccc2c1c1ccc(C(=O)N=C(N)N)cc1n2C1CC=C(F)CC1 (stereo not drawn) [Example 161] | ≤ 0.05 | – | significantly inhibited | – |
| NC(N)=NC(=O)c1cc(Cl)c2c3ccccc3n(C3CCOCC3)c2c1 [Example 150] | ≤ 0.05 | – | significantly inhibited | – |
